Test results published in publication PMC5845537 (Frontiers in Pharmacology, 2018).

Tests used:
[1] = test system: C57BL/6NCrlBr mice; experiment: Mouse object placement (OP) task after subchronic PCP; format: in vivo
Description: (§1) Subchronic PCP treatment: The subPCP administration regimen used in rats was conducted as described in ([Goetghebeur and Dias, 2009]), which is a reliable method for inducing deficits in our hands. Rats in the subPCP experiments received injections of 5 mg/mL PCP or vehicle (saline) s.c. at a 1 mL/kg injection volume twice per day for 7 days. […] The mouse subPCP regimen was conducted as described in [Pedersen et al. (2014)]. Briefly, mice received vehicle or PCP (1.3 mg/mL concentration, 10 mL/kg injection volume) s.c once per day for 14 days followed by a 7-day washout prior to experimentation.
Object placement and OR tasks in mice were executed in Perspex boxes measuring 40 × 40 cm with dark gray walls and a white floor. The tests were conducted during the light phase, yet in a subdued light (≈20 lux) and with the radio turned on in the background. Each trial was recorder by a camera mounted above the test arenas and later scored manually.
Objects in the mouse OP task consisted of small stork sculptures made of plaster, which were 11.5 cm in height, with a roughly rectangle-shaped base 7.5 cm in length and 4.8 cm in width. For the mouse OR task, objects consisted of (1) small cylindrical pepper mills (purchased empty, having never contained spice) made of clear plastic (10.5 cm in height, 4.5 cm diameter), and (2) small salt shakers made of light blue glass (again, purchased empty; 11.5 cm in height, 4.5 cm diameter). […]
The primary dependent measure for the OR and object placement tasks was a novel object or novel placement preference score, which were calculated from raw object investigation times using the following equation: Preference Score = ITN/(ITN + ITF)^∗100, where ITN represents the investigation time for the novel object or placement, and ITF represents the investigation for the familiar object or placement. Total exploration times from the information and test trials were analyzed for OP and OR experiments. Preference score and total exploration time data was analyzed for treatment group differences using a one-way between-subjects ANOVA. […]

[2] = test system: Long-Evans rats; experiment: Attentional set-shifting task (AST) in subchronic PCP-treated rats; format: in vivo, rat
Description: as §1
Each test used male Long-Evans rats (Charles River, United States) aged 5–6 weeks when arriving at the research facility.
The attentional set-shifting test (AST) methods used here were adapted from [Goetghebeur and Dias (2009)]. The apparatus used for the AST test was a 44 cm × 64 cm × 30 cm black non-transparent Perspex test box, divided into 3 equal-sized areas (a starting area separated from a choice area subdivided in two). In the choice area, two 11 cm diameter terracotta pots were placed recessed into the box floor (with a 2 cm lip remaining above the floor) and separated by a divider. Odor (oils from The Body Shop®, United Kingdom) and media cues (not previously presented to the rats) were added to the pots.
Beginning on day 3 after the cessation of PCP administration, rats were subjected to a habituation period and trained to dig for a diet reward (half a Honey Loop cereal, Nestlé®) in terracotta pots filled with sawdust. On day 7 of PCP washout, rats were subjected to a single training session in which they were required to discriminate between two pots in order to find the reward. These discriminations were either based on differences in the digging media or the pot’s odor. On day 8 rats were presented with a series of increasingly difficult discriminations: a simple discrimination (SD), a compound discrimination (CD), two intra-dimensional shifts (ID1, ID2), an intra-dimensional shift reversal (ID2R), an extra-dimensional shift (ED) and an extra-dimensional shift reversal (EDR; see Table 1). Rats were required to meet a training criterion before moving on to a new discrimination type (for specifics, see Statistical Analysis, below).
The first trial of each discrimination stage was a discovery trial in which rats were allowed to dig in both pots, and to self-correct if digging in the wrong pot. Rats were only given one discovery trial. The discovery trial was included in the trials to criterion if the rat dug first in the correct pot, but not if the rat self-corrected an incorrect initial dig.
In the acute vortioxetine study, prior to the start of behavioral experiments on Day 8 of washout from PCP treatment, animals were randomly administered either 20% CD (Veh), […], or 64 mg/kg modafinil 30 min p.o. as described above (included as a positive control). Thus, the treatment groups in the acute vortioxetine study were as follows: Veh/Veh, PCP/Veh, PCP/1 mg/kg vortioxetine, PCP/3 mg/kg vortioxetine, PCP/10 mg/kg vortioxetine, or PCP/64 mg/kg modafinil.
Food dosing lasted from the first day of sub-chronic PCP administration and until the last day of the washout period (total of 14 days). After the end of the washout period where behavioral testing started, rats were fed with the same conditioned diet, however, under food restriction (∼11 g of diet per day per rat). In addition, some PCP-treated animals were fed vehicle food, but received acute injections of either 10 mg/kg vortioxetine, or 64 mg/kg modafinil, as described above. The treatment groups for the subchronic vortioxetine administration study were as follows: Veh/Veh, PCP/Veh, PCP/0.22 g/kg vortioxetine food, PCP/1.8 g/kg vortioxetine food, PCP/10 mg/kg vortioxetine 1 h s.c., or PCP/64 mg/kg 30 min p.o.
A third experiment was conducted to examine the effects of acute SERT inhibition or 5-HT3 receptor antagonism on subPCP-induced AST impairments. […]

[3] = subchronic vortioxetine study, subPCP vs Veh/Veh, p < 0.001
[4] = subchronic high-dose 1.8 g vortioxetine/kg food weight p.o., p < 0.001
[5] = subchronic low-dose 0.18 g vortioxetine/kg food weight p.o., p < 0.001
[6] = subchronic vortioxetine study, acute 10 mg/kg 1 h s.c., p < 0.001

SMILES	novel placement preference score ([1]; subPCP/vehicle vs vehicle/vehicle mice, p < 0.01)	trials to reach criterion, EDR discrimination ([2]; acute vortioxetine study, subPCP/vehicle vs vehicle/vehicle)	trials to reach criterion, ED discrimination ([2]; acute vortioxetine study, subPCP/vehicle vs vehicle/vehicle, PCP 5 mg/kg s.c. twice per day 7 days, 7-day washout, p < 0.01)	trials to reach criterion, EDR discrimination ([2]; ondansetron/escitalopram study, subPCP vs vehicle/vehicle)	trials to reach criterion, ED discrimination ([2]; ondansetron/escitalopram study, subPCP vs vehicle/vehicle, p < 0.001)	trials to reach criterion, ED discrimination [2, 3]	trials to reach criterion, EDR discrimination [2, 3]	attenuation of subPCP-induced object placement task impairment ([1]; subPCP-treated mice, 10 mg/kg s.c. bolus plus seven days 0.6 g/kg chow, p < 0.05)	object placement task performance vs vehicle/vehicle ([1]; vortioxetine/vehicle group, mice without PCP)	reversal of subPCP-induced impairment, ED discrimination (trials to criterion) ([2]; acute vortioxetine study, 1 mg/kg 1 h s.c., vs PCP/Veh)	reversal of subPCP-induced impairment, ED discrimination (trials to criterion) ([2]; acute vortioxetine study, 3 mg/kg 1 h s.c., vs PCP/Veh)	reversal of subPCP-induced impairment, ED discrimination (trials to criterion) ([2]; acute vortioxetine study, 10 mg/kg 1 h s.c., vs PCP/Veh)	reversal of subPCP-induced impairment, EDR discrimination (trials to criterion) ([2]; acute vortioxetine study, acute 1, 3, 10 mg/kg 1 h s.c., vs PCP/Veh)	attenuation of subPCP-induced impairment, ED discrimination [2, 4]	attenuation of subPCP-induced impairment, EDR discrimination [2, 4]	attenuation of subPCP-induced impairment, ED discrimination [2, 5]	attenuation of subPCP-induced impairment, EDR discrimination [2, 5]	normalization of AST performance in subPCP-treated rats, ED [2, 6]	normalization of AST performance in subPCP-treated rats, EDR [2, 6]
Cl.c1ccc(C2(N3CCCCC3)CCCCC2)cc1 [PCP, 1-(1-phenylcyclohexyl)-piperidine hydrochloride]	significantly reduced novel placement preference scores	significant increases	significant increase	failed to induce a significant increase	significant increase	significant increase	significant increase												
Cc1ccc(Sc2ccccc2N2CCNCC2)c(C)c1 [vortioxetine]								significantly attenuated	did not perform significantly better	significantly reversed	significantly reversed	significantly reversed	neither acute vortioxetine nor modafinil significantly reversed	significantly attenuated	significantly attenuated	significantly attenuated	significantly attenuated	significant normalization	significant normalization
